Measured values from article PMC5556071, “ATR inhibition facilitates targeting of leukemia dependence on convergent nucleotide biosynthetic pathways” (Nature Communications, 2017).
Several values for one entry are separate records, joined by “and”; a condition that tells them apart may be missing. Identical values can stand only once.

Test system: CEM cells
Test: Non-targeted LC-MS metabolite profiling: percent [13C6]glucose labeling and relative metabolite levels
Assay type: cell-based, human
Conditions: CEM cells, 12 h following release from G1 arrest, replicates #1-#6
Excerpt: To further investigate the functions of dCK and ATR at the G1/S transition in CEM cells, a non-targeted liquid chromatography mass spectrometry (LC-MS) assay was used to determine the utilization of labeled [^13C6]glucose and [^13C9,^15N3]deoxycytidine, the main substrates for de novo and salvage nucleotide biosynthesis, respectively. Of the 166 metabolites identified in CEM cells treated with VE-822 and/or dCKi, 105 metabolites found in all four treatment groups contained glucose-derived ^13C atoms. […] These metabolites included intermediates such as rUTP, rCTP and rCDP in the de novo dCTP biosynthesis (Fig. 1d). […] However, several deoxyribonucleotides, including dCTP, were below the limit of detection of the non-targeted LC-MS approach, raising the concern that the sensitivity of this assay is not sufficient to measure the contribution of the salvage pathway or the ratio of de novo and salvage biosynthesis to these pools. To address this problem, a newly developed targeted MS assay was developed (Fig. 1e and Supplementary Fig. 3). In this assay, samples containing either extracted dNTPs or hydrolyzed DNA from labeled cells are separated by LC for detection by a triple quadrupole mass spectrometer using multiple reaction monitoring (LC-MS/MS-MRM). The first (Q1) and third (Q3) quadrupoles function as mass filters, while the second (Q2) quadrupole serves as a collision chamber (Fig. 1e). For instance, to profile the biosynthetic composition of deoxycytidine (dC) derived from hydrolyzed DNA or dCTP, an intact, protonated dC ion is selected in Q1, followed by fragmentation of the glycosidic bond, which releases protonated cytosine in Q2, that is filtered in Q3 and detected to generate an ion chromatogram. The peak areas for the ion chromatograms of salvage [^13C9,^15N3]dC (red trace), de novo [^13C5]dC (black trace, from [^13C6]glucose) and unlabeled dC (gray trace) (Fig. 1e) are used to determine the relative contributions of the de novo and salvage routes both to dCTP pools and to DNA-incorporated dCTP.
Cells were transferred into RPMI-1640 without glucose and supplemented with 10% dialyzed FBS (Gibco) containing the following labeled substrates: precursors for de novo [U-^13C6]glucose (Sigma-Aldrich, 389374) at 11 mM; precursors for purine salvage [U-^13C10,^15N5]dA (Cambridge Isotopes, CIL 3896), [^15N5]dA (Cambridge Isotopes, NLM-3895) and [^15N5]dG (Cambridge Isotopes, NLM-3899) at 5 µM or as indicated; and precursors for pyrimidine salvage: [U-^13C9,^15N3]dC (Silantes, 124603602) and [U-^13C10,^15N2]dT (Cambridge Isotopes, CNLM-3902) at 5 µM and [^15N2]orotate (Cambridge Isotopes, NLM-1048) at indicated concentrations. The cells were incubated for 12 h or as indicated before sample collection and processing. […]
Non-targeted LC-MS metabolic assays. 1 x 10^6 cells were washed with ice-cold 150 mM ammonium acetate twice before adding 1 mL of ice-cold 80% methanol with 10 nM norvaline as an internal standard. After vigorous vortexing, samples were centrifuged at maximum speed, the aqueous layer was transferred to a glass vial and the metabolites were dried under vacuum. Metabolites were resuspended in 50 μL 70% acetonitrile (ACN) and 5 μL of this solution used for the mass spectrometer-based analysis. The analysis was performed on a Q Exactive (Thermo Scientific) in polarity-switching mode with positive voltage 4.0 kV and negative voltage 4.0 kV. The mass spectrometer was coupled to an UltiMate 3000RSLC (Thermo Scientific) UHPLC system. Mobile phase A was 5 mM ammonium acetate (NH4AcO), pH 9.9, B was acetonitrile and the separation achieved on a Luna […] NH2 100 A column (150 × 2.0 mm, Phenomenex). The flow was 200 μL/min, and the gradient ran from 15% A to 95% A in 18 min, followed by an isocratic step for 9 min and re-equilibration for 7 min. Metabolites were detected and quantified as area under the curve based on retention time and accurate mass (≤ 3 p.p.m.) using the TraceFinder 3.1 (Thermo Scientific). Relative amounts of […]

[1] = metabolite 2-HG (C02630), listed as V
[2] = metabolite 2-HIC (C03264), listed as V
[3] = metabolite 3PG (C00197), listed as V
[4] = metabolite 5-Oxoproline (C01879), listed as V
[5] = metabolite A (C00212), listed as V
[6] = metabolite ADP (C00008), listed as V
[7] = metabolite AMP (C00020), listed as V
[8] = metabolite ATP (C00002), listed as V
[9] = metabolite Ac-carnitine (C02571), listed as V
[10] = metabolite Ac-choline (C01996), listed as V
[11] = metabolite Aconitate (C00417), listed as V
[12] = metabolite Adenine (C00034), listed as V
[13] = metabolite Ala (C00041), listed as V
[14] = metabolite Allantoin (C02350), listed as V
[15] = metabolite Arg (C00062), listed as V
[16] = metabolite Arg-Succ (C03406), listed as V

CNCc1ccc(-c2cc(-c3nc(-c4ccc(S(=O)(=O)C(C)C)cc4)cnc3N)on2)cc1 [VE-822]
Relative level, Sarc (C00213) (listed as V): 1.3 (2×) and 1.2 and 0.569 and 0.751 and 0.6 | Relative level, Ser (C00065) (listed as V): 1.4 and 1.5 (2×) and 0.9 and 1.0 and 0.949 | Relative level, Shikimate (C00493) (listed as V): 1.3 and 1.2 and 1.5 and 1.1 and 0.8 (2×) | Relative level, Succ (C00042) (listed as V): 1.6 (2×) and 1.3 and 1.1 and 0.5 (2×) | Relative level, T (C00214) (listed as V): 1.1 (2×) and 1.3 (2×) and 1.2 and 1.4 | Relative level, Thr (C00188) (listed as V): 1.5 and 1.6 (2×) and 1.0 and 0.949 and 0.9 | Relative level, Thymine (C00178) (listed as V): 1.4 and 1.5 (2×) and 1.0 (2×) and 1.2 | Relative level, Trigonelline (C01004) (listed as V): 1.3 (3×) and 1.5 and 0.8 and 1.2 | Relative level, Trp (C00078) (listed as V): 1.4 and 1.5 (2×) and 0.9 (2×) and 1.0 | Relative level, Tyr (C00082) (listed as V): 1.4 and 1.6 (2×) and 0.9 (3×) | Relative level, Tyramine (C00483) (listed as V): 1.0 and 1.1 and 1.7 and 0.8 (2×) and 0.7 | Relative level, UDP (C00015) (listed as V): 2.4 and 1.3 and 1.6 and 1.1 and 0.7 and 0.6 | Relative level, UDP-Glc (C00029) (listed as V): 2.4 and 2.0 and 2.8 and 1.5 and 1.4 and 1.7 | Relative level, UDP-GlcNAc (C00043) (listed as V): 1.2 and 1.1 and 1.4 and 0.747 and 0.8 and 0.9 | Relative level, UMP (C00105) (listed as V): 2.6 and 2.3 and 2.5 and 2.0 and 0.7 (2×) | Relative level, UTP (C00075) (listed as V): 1.2 and 0.571 and 0.7 and 0.75 and 0.4 and 0.355 | Relative level, Uracil (C00106) (listed as V): 1.2 (2×) and 2.0 and 2.6 and 1.1 and 0.8 | Relative level, Uric Acid (C00366) (listed as V): 0.5 and 0.9 and 1.4 and 0.242 and 0.282 and 0.253 | Relative level, Urocanate (C00785) (listed as V): 0.542 and 1.3 and 1.4 and 0.452 and 0.8 and 0.7 | Relative level, Val (C00183) (listed as V): 1.1 and 1.3 (2×) and 1.5 and 0.9 (2×) | Relative level, Vit-C (C00072) (listed as V): 5.1 and 1.4 (2×) and 2.3 and 0.5 and 0.2 | Relative level, Xanthine (C00385) (listed as V): 0.9 and 1.7 and 2.5 and 2.4 and 0.843 and 0.6 | Glucose labeling, 2-HG [1]: 9.00% and 8.24% and 8.56% and 6.59% and 3.26% and 5.24% | Relative level, 2-HG [1]: 1.5 and 1.0 and 1.3 and 0.9 and 0.545 and 0.5 | Glucose labeling, 2-HIC [2]: -2.22e-14% and 0.00% (5×) | Relative level, 2-HIC [2]: 1.2 (2×) and 1.5 (2×) and 0.8 and 0.9 | Glucose labeling, 2-KIC (metabolite 2-KIC (C00233)): 0.00% | Relative level, 2-KIC (metabolite 2-KIC (C00233), listed as V): 1.1 and 1.2 and 1.3 and 0.9 (2×) and 0.8 | Glucose labeling, 2-Oxoadipate (metabolite 2-Oxoadipate (C00322)): 0.00% | Relative level, 2-Oxoadipate (metabolite 2-Oxoadipate (C00322), listed as V): 1.3 and 1.0 (2×) and 1.4 and 1.1 and 0.759 | Glucose labeling, 2-Oxosuccinamate (metabolite 2-Oxosuccinamate (C02362)): 0.0737% | Relative level, 2-Oxosuccinamate (metabolite 2-Oxosuccinamate (C02362), listed as V): 0.8 and 0.9 and 1.6 and 2.4 and 0.5 and 0.438 | Glucose labeling, 3PG [3]: 98.64% and 92.25% and 93.08% and 80.82% and 100.00% (2×) | Relative level, 3PG [3]: 1.3 and 0.262 and 0.5 (2×) and 0.0899 and 0.0949 | Glucose labeling, 4-OH-PheLac (metabolite 4-OH-PheLac (C03672)): 0.00% | Relative level, 4-OH-PheLac (metabolite 4-OH-PheLac (C03672), listed as V): 1.0 and 1.1 and 1.3 and 0.7 and 0.5 and 0.6 | Glucose labeling, 5-Oxoproline [4]: 1.06% and 0.96% and 1.16% and 0.74% (2×) and 0.98% | Relative level, 5-Oxoproline [4]: 1.0 (2×) and 1.1 (2×) and 0.9 and 0.7 | Glucose labeling, 5M-adenosine (metabolite 5M-adenosine (C00170)): 0.00% | Relative level, 5M-adenosine (metabolite 5M-adenosine (C00170), listed as V): 1.7 and 1.9 (2×) and 1.3 (2×) and 1.4 | Glucose labeling, A [5]: 0.0217% and 0.39% and 0.36% and 0.0233% and 0.0286% and 0.01% | Relative level, A [5]: 1.7 and 1.1 and 1.2 and 4.1 and 1.0 and 1.8 | Glucose labeling, ADP [6]: 63.63% and 60.29% and 63.02% and 59.23% and 57.33% and 59.16% | Relative level, ADP [6]: 2.2 and 1.0 and 1.4 and 1.2 and 0.6 (2×) | Glucose labeling, AMP [7]: 58.98% and 57.42% and 62.07% and 26.04% and 58.67% and 50.37% | Relative level, AMP [7]: 2.8 and 1.7 and 2.2 and 3.0 and 0.8 and 0.7 | Glucose labeling, ATP [8]: 65.50% and 64.37% and 65.03% and 64.82% and 61.07% and 61.72% | Relative level, ATP [8]: 1.5 and 0.6 and 0.849 and 0.9 and 0.466 and 0.5 | Glucose labeling, Ac-carnitine [9]: 29.64% and 30.01% and 28.25% and 21.49% and 24.07% and 21.63% | Relative level, Ac-carnitine [9]: 1.1 (2×) and 1.2 and 0.7 (2×) and 0.8 | Glucose labeling, Ac-choline [10]: 0.00429% and 0.00459% and 0.00523% and 0.00396% and 0.00509% and 0.00552% | Relative level, Ac-choline [10]: 0.746 and 0.8 (3×) and 0.76 and 0.9 | Glucose labeling, Aconitate [11]: 33.62% and 26.91% and 31.71% and 21.17% and 28.64% and 25.94% | Relative level, Aconitate [11]: 1.0 and 0.433 and 0.659 and 0.53 and 0.3 and 0.355 | Glucose labeling, Adenine [12]: 1.88e-5% and 1.21e-5% and 0.00361% and 1.25e-5% and 1.11e-5% and 0.0013% | Relative level, Adenine [12]: 1.8 and 3.0 and 3.1 and 41.9 and 2.1 and 1.5 | Glucose labeling, Ala [13]: 57.46% and 55.60% and 53.77% and 47.90% and 47.23% and 52.00% | Relative level, Ala [13]: 1.3 and 1.5 (2×) and 0.9 (2×) and 1.0 | Glucose labeling, Allantoin [14]: 0.00% (5×) and -2.22e-14% | Relative level, Allantoin [14]: 1.3 (2×) and 1.7 and 1.1 and 0.7 and 1.0 | Glucose labeling, Arg [15]: 0.00452% and 0.00428% and 0.00453% and 0.00405% and 0.00437% and 0.00476% | Relative level, Arg [15]: 1.5 and 1.7 and 1.6 and 0.9 (2×) and 1.1 | Glucose labeling, Arg-Succ [16]: 10.44% and 8.30% and 5.56% and 3.28% and 1.95% and 6.31% | Relative level, Arg-Succ [16]: 1.4 and 1.3 and 1.5 and 0.9 and 0.6 and 0.5 | Glucose labeling, Asn (metabolite Asn (C00152), listed as V): 5.14e-5% and 2.85e-6% and 2.32e-6% and 0.000702% and 2.84e-6% and 2.39e-6%
